Tests used:
Details in all cases: exposure time: 72 h
E21 [1] = patient-derived glioblastoma stem cells of mesenchymal subtype; experiment: phenotypic distance (Euclidean, principal components) from DMSO controls (arbitrary units); higher = stronger morphological change
E31 [2] = patient-derived glioblastoma stem cells of proneural subtype; experiment: as above
E28 [3] = patient-derived glioblastoma stem cells of classical subtype; experiment: as above
FT3469 [4] = normal neural stem cell line; experiment: as above
E13 [5] = patient-derived glioblastoma stem cells of classical subtype; experiment: as above
E34 [6] = patient-derived glioblastoma stem cells of proneural subtype; experiment: as above
E57 [7] = patient-derived glioblastoma stem cells of mesenchymal subtype; experiment: as above
E21 [8] = experiment: surviving fraction (nuclei count normalised to DMSO); higher = more cells surviving (less toxic)
E31 [9] = experiment: as above
E28 [10] = experiment: as above
FT3469 [11] = experiment: as above
E13 [12] = experiment: as above
E34 [13] = experiment: as above
E57 [14] = experiment: as above
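For phenotypic distance (Euclidean, principal components) from DMSO controls in this document: cell Painting imaging in 384-well plates, CellProfiler features reduced to at least 20 principal components, Euclidean distance versus same-plate DMSO vehicle wells (0.1% v/v), median over six images per well.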
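For surviving fraction (nuclei count normalised to DMSO) in this document: nuclei counted by high-content imaging of Hoechst-stained cells in laminin-coated 384-well plates, relative to 0.1% DMSO vehicle wells, with staurosporine as cell-death control.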

Nc1ccc(-c2ccc3ncc4ccc(=O)n(-c5cccc(C(F)(F)F)c5)c4c3c2)cn1 [Torin2]
Details	phenotypic distance	surviving fraction
E13 [5], 4.1 nM	1.33	–
E13 [5], 12.3 nM	2.1	–
E13 [5], 37 nM	2.69	–
E13 [5], 111.1 nM	3.25	–
E13 [5], 333.3 nM	4.2	–
E13 [5], 1000 nM	4.27	–
E13 [5], 3000 nM	4.72	–
E13 [12], 4.1 nM	–	0.816
E13 [12], 12.3 nM	–	0.728
E13 [12], 37 nM	–	0.628
E13 [12], 111.1 nM	–	0.537
E13 [12], 333.3 nM	–	0.467
E13 [12], 1000 nM	–	0.434
E13 [12], 3000 nM	–	0.387
E21 [1], 4.1 nM	1.71	–
E21 [1], 12.3 nM	2.07	–
E21 [1], 37 nM	2.44	–
E21 [1], 111.1 nM	3.36	–
E21 [1], 333.3 nM	6.2	–
E21 [1], 1000 nM	4.67	–
E21 [1], 3000 nM	5.09	–
E21 [8], 4.1 nM	–	0.939
E21 [8], 12.3 nM	–	0.836
E21 [8], 37 nM	–	0.924
E21 [8], 111.1 nM	–	0.595
E21 [8], 333.3 nM	–	0.326
E21 [8], 1000 nM	–	0.31
E21 [8], 3000 nM	–	0.252
E28 [3], 4.1 nM	1.23	–
E28 [3], 12.3 nM	2.35	–
E28 [3], 37 nM	2.78	–
E28 [3], 111.1 nM	3.06	–
E28 [3], 333.3 nM	2.87	–
E28 [3], 1000 nM	3.67	–
E28 [3], 3000 nM	3.52	–
E28 [10], 4.1 nM	–	0.829
E28 [10], 12.3 nM	–	0.687
E28 [10], 37 nM	–	0.705
E28 [10], 111.1 nM	–	0.526
E28 [10], 333.3 nM	–	0.534
E28 [10], 1000 nM	–	0.417
E28 [10], 3000 nM	–	0.324
E31 [2], 4.1 nM	1.91	–
E31 [2], 12.3 nM	2.08	–
E31 [2], 37 nM	3.12	–
E31 [2], 111.1 nM	4.26	–
E31 [2], 333.3 nM	5.33	–
E31 [2], 1000 nM	5.33	–
E31 [2], 3000 nM	6.15	–
E31 [9], 4.1 nM	–	0.743
E31 [9], 12.3 nM	–	0.669
E31 [9], 37 nM	–	0.612
E31 [9], 111.1 nM	–	0.386
E31 [9], 333.3 nM	–	0.26
E31 [9], 1000 nM	–	0.234
E31 [9], 3000 nM	–	0.102
E34 [6], 4.1 nM	1.56	–
E34 [6], 12.3 nM	2.42	–
E34 [6], 37 nM	2.76	–
E34 [6], 111.1 nM	3.31	–
E34 [6], 333.3 nM	3.09	–
E34 [6], 1000 nM	2.85	–
E34 [6], 3000 nM	3.68	–
E34 [13], 4.1 nM	–	0.986
E34 [13], 12.3 nM	–	0.84
E34 [13], 37 nM	–	0.809
E34 [13], 111.1 nM	–	0.796
E34 [13], 333.3 nM	–	0.623
E34 [13], 1000 nM	–	0.471
E34 [13], 3000 nM	–	0.424
E57 [7], 4.1 nM	1.19	–
E57 [7], 12.3 nM	1.65	–
E57 [7], 37 nM	2.17	–
E57 [7], 111.1 nM	3.47	–
E57 [7], 333.3 nM	4.27	–
E57 [7], 1000 nM	5.35	–
E57 [7], 3000 nM	8.06	–
E57 [14], 4.1 nM	–	0.892
E57 [14], 12.3 nM	–	0.74
E57 [14], 37 nM	–	0.659
E57 [14], 111.1 nM	–	0.548
E57 [14], 333.3 nM	–	0.424
E57 [14], 1000 nM	–	0.302
E57 [14], 3000 nM	–	0.148
FT3469 [4], 4.1 nM	1.78	–
FT3469 [4], 12.3 nM	2	–
FT3469 [4], 37 nM	2.85	–
FT3469 [4], 111.1 nM	2.71	–
FT3469 [4], 333.3 nM	3.04	–
FT3469 [4], 1000 nM	2.81	–
FT3469 [4], 3000 nM	3.65	–
FT3469 [11], 4.1 nM	–	0.978
FT3469 [11], 12.3 nM	–	0.925
FT3469 [11], 37 nM	–	0.73
FT3469 [11], 111.1 nM	–	0.685
FT3469 [11], 333.3 nM	–	0.769
FT3469 [11], 1000 nM	–	0.685
FT3469 [11], 3000 nM	–	0.527

CC(C)C[C@@H](C(=O)N[C@H](C(=O)OC1CCCC1)c1ccccc1)[C@H](O)C(=O)NO [Tosedostat]
Details	phenotypic distance	surviving fraction
E13 [5], 4.1 nM	0.738	–
E13 [5], 12.3 nM	0.631	–
E13 [5], 37 nM	1.06	–
E13 [5], 111.1 nM	1.01	–
E13 [5], 333.3 nM	1.39	–
E13 [5], 1000 nM	1.41	–
E13 [5], 3000 nM	1.3	–
E13 [12], 4.1 nM	–	0.889
E13 [12], 12.3 nM	–	0.853
E13 [12], 37 nM	–	0.863
E13 [12], 111.1 nM	–	1.01
E13 [12], 333.3 nM	–	0.894
E13 [12], 1000 nM	–	0.894
E13 [12], 3000 nM	–	0.934
E21 [1], 4.1 nM	0.795	–
E21 [1], 12.3 nM	0.918	–
E21 [1], 37 nM	0.947	–
E21 [1], 111.1 nM	1.11	–
E21 [1], 333.3 nM	1.62	–
E21 [1], 1000 nM	1.49	–
E21 [1], 3000 nM	2.1	–
E21 [8], 4.1 nM	–	0.858
E21 [8], 12.3 nM	–	0.909
E21 [8], 37 nM	–	0.793
E21 [8], 111.1 nM	–	0.78
E21 [8], 333.3 nM	–	0.772
E21 [8], 1000 nM	–	0.715
E21 [8], 3000 nM	–	0.507
E28 [3], 4.1 nM	0.786	–
E28 [3], 12.3 nM	1.24	–
E28 [3], 37 nM	1.27	–
E28 [3], 111.1 nM	1.73	–
E28 [3], 333.3 nM	1.68	–
E28 [3], 1000 nM	2.2	–
E28 [3], 3000 nM	2.09	–
E28 [10], 4.1 nM	–	0.904
E28 [10], 12.3 nM	–	0.755
E28 [10], 37 nM	–	0.781
E28 [10], 111.1 nM	–	0.846
E28 [10], 333.3 nM	–	0.657
E28 [10], 1000 nM	–	0.692
E28 [10], 3000 nM	–	0.583
E31 [2], 4.1 nM	1.18	–
E31 [2], 12.3 nM	0.639	–
E31 [2], 37 nM	1.52	–
E31 [2], 111.1 nM	0.949	–
E31 [2], 333.3 nM	1.01	–
E31 [2], 1000 nM	1.28	–
E31 [2], 3000 nM	1.86	–
E31 [9], 4.1 nM	–	0.788
E31 [9], 12.3 nM	–	0.935
E31 [9], 37 nM	–	0.7
E31 [9], 111.1 nM	–	0.861
E31 [9], 333.3 nM	–	0.836
E31 [9], 1000 nM	–	0.796
E31 [9], 3000 nM	–	0.683
E34 [6], 4.1 nM	0.805	–
E34 [6], 12.3 nM	1.29	–
E34 [6], 37 nM	0.677	–
E34 [6], 111.1 nM	1.91	–
E34 [6], 333.3 nM	1.92	–
E34 [6], 1000 nM	1.4	–
E34 [6], 3000 nM	1.6	–
E34 [13], 4.1 nM	–	0.968
E34 [13], 12.3 nM	–	0.827
E34 [13], 37 nM	–	0.787
E34 [13], 111.1 nM	–	0.842
E34 [13], 333.3 nM	–	0.662
E34 [13], 1000 nM	–	0.8
E34 [13], 3000 nM	–	0.833
E57 [7], 4.1 nM	1.53	–
E57 [7], 12.3 nM	1.55	–
E57 [7], 37 nM	1.95	–
E57 [7], 111.1 nM	2.24	–
E57 [7], 333.3 nM	2.7	–
E57 [7], 1000 nM	2.08	–
E57 [7], 3000 nM	2.7	–
E57 [14], 4.1 nM	–	0.806
E57 [14], 12.3 nM	–	0.83
E57 [14], 37 nM	–	0.744
E57 [14], 111.1 nM	–	0.679
E57 [14], 333.3 nM	–	0.635
E57 [14], 1000 nM	–	0.708
E57 [14], 3000 nM	–	0.622
FT3469 [4], 4.1 nM	1.7	–
FT3469 [4], 12.3 nM	1.82	–
FT3469 [4], 37 nM	1.97	–
FT3469 [4], 111.1 nM	1.7	–
FT3469 [4], 333.3 nM	1.92	–
FT3469 [4], 1000 nM	2.23	–
FT3469 [4], 3000 nM	2.64	–
FT3469 [11], 4.1 nM	–	0.843
FT3469 [11], 12.3 nM	–	0.843
FT3469 [11], 37 nM	–	0.774
FT3469 [11], 111.1 nM	–	0.831
FT3469 [11], 333.3 nM	–	0.809
FT3469 [11], 1000 nM	–	0.759
FT3469 [11], 3000 nM	–	0.746

— the supplement of paper PMC13207355
